What is called IC50 is the point on the concentration scale where inhibition reaches its midpoint.

Data on 5 compounds can be found in patent US5843925A, “Methods for inhibiting angiogenesis, proliferation of endothelial or tumor cells and tumor growth” (American Cyanamid Company, priority 1994, dated 1998).

For one data set, the system named is HTB 161. Briefly: Antiproliferative activity in human tumor cell lines (HTB 161). Format: cell-based. On the procedure: (§1) PROTOCOLS 1, 2, and 3 are described in greater detail hereinbelow. In general, according to PROTOCOLS 1 and 2, the target ABAE and/or Human Tumor cells are exposed to the compound of Formula I for 48 hours. PROTOCOL 3 exposes ABAE cells to the compounds for 4 days. A detailed description of the protocol is as follows:
(§2) The antiproliferative activity of the compounds of Formula I of the present invention is evaluated in a panel comprised of human tumor cell lines and an adult bovine aortic endothelial cell line (ABAE). The human tumor cell lines are from
(§3) Cultures are renewed after 20 passages with cells from a fresh stock of batch-frozen early passage cells. Cell lines are routinely checked for mycoplasma contamination (Genprobe). In a laminar flow hood, cells (1-5×10^4) are plated into 96-well microtiter plates in a volume of 0.1 ml/well with a bulk microtiter dispenser (Denley). […] Compounds are added using a Tomtec dispenser which simultaneously dispenses from one 96-well plate, containing the drug dilutions, to the plates containing the cells. After two days of continuous drug exposure, 50% cold trichloroacetic acid (TCA) is added to 10% final concentration to fix the cells, and after 60 minutes at 4° C., the TCA is aspirated and the plates are washed 5 times with deionized water using a microtiter plate washer. […] A 0.4% solution of the dye, sulforhodamine B, in […] is added to the plates, and the plates are washed 5 times with 1% glacial acetic acid using the automatic plate washed. The bound stain is solubilized with 0.1 ml of 10 mM Tris base. The optical densities are read from an automatic spectrophotometric plate reader (Dynatech) directly to a main frame computer (VAX 8600).
(§4) Positive controls, that include standard chemotherapeutic drugs (i.e., adriamycin, cisplatin, etc.), are included in every experiment.
(§5) Background optical density measurements (complete media-cells, and complete media+drug-cells) are automatically subtracted from the appropriate control and test wells. Mean values and standard errors are determined from duplicate wells. A measure is also made of the optical density at time when the drugs are added. The number of cells after treatment (P), as % of control, is calculated for every concentration of drug, as follows: [formula] wherein: T is optical density measurement for treated cells after 48 hours;
(§6) C is optical density measurement for untreated cells after 48 hours;
(§7) Co is optical density measurement for cells at the time of drug addition.
(§8) IC50 of growth inhibition is calculated from the sets of P values using the RS-1 data package (BBN Software).
(§9) Antiproliferative Activity in Human Tumor Cell Lines
(§10) The antiproliferative activity of the compounds of Formula I is evaluated in the panel comprised of human tumor cell lines as listed in PROTOCOL 1. This assay is a slight modification of PROTOCOL 1. The modifications include:
(§11) 1) each concentration for each compound is tested in a single well;
(§12) 2) compounds are tested at 20, 4, 0.8, 0.16 microgram/ml and additionally in some experiments at 100 and 0.32 microgram/ml;
(§13) 3) samples are pipetted into a 96-well plate for each of the cell lines by a Beckman Biomek 1000 SL robot;
(§14) 4) after fixing with TCA each well is washed with 0.35 ml distilled water twice, not five times;
(§15) 5) after staining with sulforhodamine B each well is washed 3 times, not five times;
(§16) 6) the growth inhibition (I) as % of control, is calculated using the RS-1 data package (BBN Software), for every concentration of drug, as follows: [formula] wherein: T is optical density measurement for treated cells after 48 hours;
(§17) 7) IC50 of growth inhibition is determined graphically from dose response curves, as is known in the art.

Another data set relates to CACO2. Briefly: Antiproliferative activity in human tumor cell lines (CACO2). Particulars: Caco-2, CACO2 colon tumor cell line. Type of data set: cell-based. On the procedure: as §1, §2
(§18) All cell lines are maintained in log phase in RPMI 1640 media, supplemented with 5% fetal calf serum, penicillin/streptomycin and 2 mM L-glutamine. Cultures are renewed after 20 passages with cells from a fresh stock of batch-frozen early passage cells. Cell lines are routinely checked for mycoplasma contamination (Genprobe). In a laminar flow hood, cells (1-5×10^4) are plated into 96-well microtiter plates in a volume of 0.1 ml/well with a bulk microtiter dispenser (Denley). […] At this concentration, dimethylsulfoxide has no effect on cell growth. Compounds are added using a Tomtec dispenser which simultaneously dispenses from one 96-well plate, containing the drug dilutions, to the plates containing the cells. After two days of continuous drug exposure, 50% cold trichloroacetic acid (TCA) is added to 10% final concentration to fix the cells, and after 60 minutes at 4° C., the TCA is aspirated and the plates are washed 5 times with deionized water using a microtiter plate washer. The number of cells on the plate are quantitated using a protein dye-binding assay (Monks et al., 1991). A 0.4% solution of the dye, sulforhodamine B, in glacial acetic acid is added to the plates, and the plates are washed 5 times with 1% glacial acetic acid using the automatic plate washed. The bound stain is solubilized with 0.1 ml of 10 mM Tris base. The optical densities are read from an automatic spectrophotometric plate reader (Dynatech) directly to a main frame computer (VAX 8600).
as §4, §5, §6, §7, §8, §9, §10, §11, §12, §13, §14, §15
(§19) 6) the growth inhibition (I) as % of control, is calculated using the RS-1 data package (BBN Software), for every concentration of drug, as follows: [formula] wherein: T is optical density measurement for treated cells after 48 hours; […]

The subject of a further data set is A2780S. As to the kind of experiment: Antiproliferative activity in human tumor cell lines (A2780S). Format: cell-based. Particulars: A2780S ovarian tumor cell line. On the procedure:
as §1, §2, §3, §4, §5, §6, §7, §8, §9, §10, §11, §12, §13, §14, §15, §16, §17

A further data set deals with A2780/DDP. As to the kind of experiment: Antiproliferative activity in human tumor cell lines (A2780/DDP). Format: cell-based. Particulars: A2780/DDP ovarian tumor cell line. On the procedure:
as §1, §2, §3, §4, §5, §6, §7, §8, §9, §10, §11, §12, §13, §14, §15, §16, §17

Another data set relates to MIP. Briefly: Antiproliferative activity in human tumor cell lines (MIP). Type of data set: cell-based. Particulars: MIP colon tumor cell line. On the procedure: as §1, §2, §18, §4, §5, §6, §7, §8, §9, §10, §11, §12, §13, §14, §15, §19
The next data set concerns Human Tumor cell lines. Briefly: Antiproliferative activity in panel of human tumor cell lines (PROTOCOL 1 and PROTOCOL 2). Format: cell-based. Conditions: for IC50: Homo sapiens, average over the tumor cell lines of Table 3. On the procedure: (§20) The antiproliferative activity of the compounds of Formula I in an Adult Bovine Aortic Endothelial (ABAE) cell line and in Human Tumor cells lines is evaluated in three similar assays that measure growth inhibition. The assays are identified as follows:
as §1, §2, §18, §4, §5, §6, §7, §8, §9, §10, §11, §12, §13, §14
5) after staining with sulforhodamine B each well is washed 3 times, not five times; […]

Another data set concerns SW620. As to the kind of experiment: Antiproliferative activity in human tumor cell lines (SW620). Type of data set: cell-based. Conditions: SW-620, SW620 colon tumor cell line. On the procedure: as §1, §2, §18, §4, §5, §6, §7, §8, §9, §10, §11, §12, §13, §14, §15, §19
The subject of data set [1] is Adult Bovine Aortic Endothelial (ABAE) cell line. Briefly: Antiproliferative activity in Adult Bovine Aortic Endothelial (ABAE) cell line, PROTOCOL 3. Type of data set: cell-based. Particulars: 4 day assay (Protocol 3). On the procedure: as §20, §1
Antiproliferative Activity in Adult Bovine Aortic Endothelial (ABAE) Cell Line
ABAE cells are grown in DMEM media (Mediatech Washington, D.C.) supplemented with 10% calf serum (Hyclone). ABAE cells are plated in 24-well dishes at 8,000 cells/well, followed by the addition of increasing concentrations of 7-[substituted amino]-9-[(substituted glycyl)amido]-6-demethyl-6-deoxytetra-cyclines. After four days, the cells are detached and counted. […] The growth inhibition (I) as % of control is calculated as follows: [formula] wherein: Nc is the number of cells in untreated wells;
Nt is the number of cells in treated wells;
No is the number of plated cells.
IC50 of growth inhibition is determined from the sets of I values plotted by Kaleidograph software (Abelbeck Software).
Table 2 presents the results depicting the antiproliferative activity of the compounds of Formula I against an adult bovine aortic endothelial cell line (ABAE), as evaluated by PROTOCOL 1 and PROTOCOL 3. The results are presented in terms of IC50 and are as follows.

A further data set deals with angiogenesis. Particulars: Cancer Research 51, 672-675, Brem et al; cited from earlier work.
[2] abbreviates: highest concentration, human tumor cell lines.

≈ marks a conversion by molar mass, not a printed value. Where a name gives a salt, the structure may show the parent alone.

Take `CCCCN(CC1CC1)c1cc(NC(=O)CN(C)C)c(O)c2c1CC1CC3C(N(C)C)C(O)=C(C(N)=O)C(=O)C3(O)C(O)=C1C2=O` (stereo not drawn) [Example 7, 7-[Butyl(cyclopropylmethyl)amino]-4-(dimethylamino)-9 [[(dimethylamino)acetyl]amino]-1,4,4a,5,5a,6,-11,12a-octahydro-3,10,12,12a-tetrahydroxy-1,11-dioxo-2-naphthacenecarboxamide sulfate (1:2)]: the IC50 in the data set with HTB 161 was 3 µg/mL; in the data set with CACO2 it was 10 µg/mL; in the data set on A2780S, 3 µg/mL; in the data set with A2780/DDP, 3 µg/mL; in the data set on MIP, 8 µg/mL; with Human Tumor cell lines, 5.1 µg/mL. In the data set with SW620, this compound showed an IC50 of 3.5 µg/mL.

For `CC(C)CN(CC(C)C)c1cc(NC(=O)CN(C)C)c(O)c2c1CC1CC3[C@H](N(C)C)C(O)=C(C(N)=O)C(=O)[C@@]3(O)C(O)=C1C2=O` (stereo partly drawn) [Example 8, [4S-(4α,12aα)]-7-[Bis(2-methylpropyl)amino]-4-(dimethylamino)9-[[(dimethylamino)acetyl]amino]-1,4,4a,5,5a,6,11,12a-octahydro-3,10,12,12a-tetrahydroxy-1,11-dioxo-2-naphthacenecarboxamide sulfate], the IC50 with HTB 161 turned out to be 2.5 µg/mL; in the data set with CACO2 it was 6 µg/mL; in the data set on A2780S it was 2.5 µg/mL; with A2780/DDP, 1.5 µg/mL; in the data set with MIP, 10 µg/mL; in the data set with Human Tumor cell lines it was 4 µg/mL. Moreover, the IC50 in the data set with SW620 was 1.5 µg/mL. Besides, in the data set with Human Tumor cell lines (setting [2]), the “cell growth at highest concentration” value is given as “the cells continue to grow”. In addition, in the data set with Human Tumor cell lines (setting [2]), the dead floating cells result is “Dead floating cells were not observed”. Besides, in the data set with Human Tumor cell lines (highest concentrations, 6 human tumor cell lines, FIG. 2), the “inhibition of cell growth” value is given as “no 100% inhibition of cell growth”.

Turning to `CCCN(CCC)c1cc(NC(=O)CN(C)C)c(O)c2c1CC1CC3[C@H](N(C)C)C(O)=C(C(N)=O)C(=O)[C@@]3(O)C(O)=C1C2=O` (stereo partly drawn) [Example 6, [4S-(4α,12aα)]-4-(Dimethylamino)-9-[[(dimethylamino)acetyl]amino]-7-(dipropylamino)-1,4,4a,5,5a,6,11,12a-octahydro-3,10,12,12a-tetrahydroxy-1,11-dioxo-2-naphthacenecarboxamide sulfate (1:1)], the IC50 was found to be 3 µg/mL with HTB 161; 8 µg/mL with CACO2; 3.5 µg/mL with A2780S; 3 µg/mL in the data set with A2780/DDP; 10 µg/mL in the data set on MIP; 5.1 µg/mL in the data set with Human Tumor cell lines. The IC50 with SW620 was 3 µg/mL.

In turn, `CN(C)c1ccc(O)c2c1C[C@H]1C[C@H]3[C@H](N(C)C)C(O)=C(C(N)=O)C(=O)[C@@]3(O)C(O)=C1C2=O` [Minocycline, reference compound] displayed an IC50 in the data set on CACO2 of 9 µg/mL (≈ 19.7 µM). In addition, the “activity upon incubation with cells” value in data set [1] was “losing its activity upon incubation with cells”. For the same compound, the “inhibition of angiogenesis vs combination therapy of heparin and cortisone” value in the data set with angiogenesis is “inhibits angiogenesis to an extent comparable to that of the combination therapy of heparin and cortisone”.

Take `CN(C)c1cc(NC(=O)CN2CCCC2)c(O)c2c1CC1CC3[C@H](N(C)C)C(O)=C(C(N)=O)C(=O)[C@@]3(O)C(O)=C1C2=O` (stereo partly drawn) [Example 3, [7S-(7α,10aα)]-N-[9-(Aminocarbonyl)-4,7-bis(dimethylamino)-5,5a,6,6a,7,10,10a,12-octahydro-1,8-10a,11-tetrahydroxy-10,12-dioxo-2-naphthacenyl]-1-pyrrolidineacetamide dihydrochloride]: the half-maximal inhibitory concentration (IC50) in the data set with HTB 161 was 2.3 µg/mL; in the data set with A2780S it was 2.4 µg/mL; in the data set with A2780/DDP it was 2.7 µg/mL; in the data set with MIP, 2.45 µg/mL; with Human Tumor cell lines it was 2.4 µg/mL; with SW620 it was 2.3 µg/mL.
